# Measured values from patent US10995099B2, “Compounds and their uses as ACC inhibitors” (NANJING RUIJIE PHARMATECH CO., LTD., priority 2017, dated 2021).
# Biological target: ACC1 (Homo sapiens (Human), UniProt Q13085)
# Assay: In vitro ACC inhibition assay (ADP-Glo), ACC1
# Format: biochemical
# Conditions: not given
# Description: (§1) Compounds of the present invention were evaluated in an in vitro ACC inhibition assay as described by Harwood, et al, 2003, the entirety of which is incorporated herein by reference.
# (§2) In Vitro Acetyl-CoA Carboxylase (ACC) Inhibition Assay
# (§3) An exemplary procedure for the in vitro ACC inhibition assay, which can be used to determine the inhibitory action of compounds of the invention toward either ACC1 or ACC2, follows. The ADP-Glo™ Kinase Assay kit from Promega was used. The ADP-Glo™ Kinase Assay is a luminescent ADP detection assay to measure enzymatic activity by quantifying the amount of ADP produced during an enzyme reaction. The assay is performed in two steps; first, after the enzyme reaction, an equal volume of ADP-Glo™ Reagent is added to terminate the reaction and deplete the remaining ATP. Second, the Kinase Detection Reagent is added to simultaneously convert ADP to ATP and allow the newly synthesized ATP to be measured using a luciferase/luciferin reaction. Luminescence can be correlated to ADP concentrations by using an ATP-to-ADP conversion curve. The detailed procedure is as follows. 50 μL of the compound being tested (600 uM in DMSO) was added to a 384-well dilution plate. The compound was diluted 1:3 in succession in DMSO for each row for 11 wells. 0.5 μL ACC2 working solution was added to 384-well white Optiplate assay plate. 0.5 μL diluted compound solution in each column from step 2 to assay plate, each row containing 2 replicates. […] The plates were incubated at room temperature for 15 minutes. 5 μL substrate working solution was added to each well to initiate reaction. Final ACC2 reaction concentrations consist of: 5 nM ACC2, 20 μM ATP, 20 μM acetyl-CoA, 12 mM NaHCO3, 0.01% Brij35, 2 mM DTT, 5% DMSO, test compound concentrations: 30 μM, 10 μM, 3.33 μM, 1.11 μM, 0.37 μM, 0.123 μM, 0.0411 μM, 0.0137 μM, 0.00457 μM, 0.00152 μM, and 0.00051 μM. Plates were incubated at room temperature for 60 minutes. 10 μL ADP glo reagent was added. Plates were incubated at room temperature for 40 minutes. 20 μL kinase detection reagent was added. Plates were incubated at room temperature for 40 minutes, then read on a Perkin Elmer EnVision 2104 plate reader for luminescence as Relative Light Units (RLU).
# (§4) Data for each concentration, as well as the positive and negative controls were averaged, and the standard deviation calculated. Percent inhibition was calculated by the formula: 100×(average negative control-compound)/(average negative control-average positive control). The IC50 for each compound was calculated by fitting the data with a non-linear regress ion equation: Y=Bottom+(Top−Bottom)/(1+10((Log IC50−X* HillSlope)), where X is the log of compound concentration and Y is percent inhibition.
row,Structure (SMILES),IC50 [µM]
1,CNC(=O)C1(n2c(=O)c3c(C)c(-c4ncco4)sc3n(CC(OC3CCOCC3)c3ccccc3OC)c2=O)CC1 (stereo not drawn) [Example 47],0.001 to 0.01
2,CNC(=O)C1(n2c(=O)c3c(C)c(-c4ncco4)sc3n(CC(OC3CCOCC3)c3ccccc3OC)c2=O)CCC1 (stereo not drawn) [Example 53],0.001 to 0.01
3,COc1ccccc1C(Cn1c(=O)n(C2(C(N)=O)CCC2)c(=O)c2c(C)c(-c3ncco3)sc21)OC1CCOCC1 (stereo not drawn) [Example 54],0.001 to 0.01

# Other lines, results leading:
row,IC50 [µM],Structure (SMILES)
1,0.01 to 0.05,COc1ccccc1C(Cn1c(=O)n(C2(C(N)=O)CCC2)c(=O)c2c(C)c(Br)sc21)OC1CCOCC1 (stereo not drawn) [Example 51]
2,0.01 to 0.05,CNC(=O)C1(n2c(=O)c3c(C)c(Br)sc3n(CC(OC3CCOCC3)c3ccccc3OC)c2=O)CCC1 (stereo not drawn) [Example 52]
3,< 0.001,COc1ccccc1[C@H](Cn1c(=O)n(C2(C(=O)O)CCCC2)c(=O)c2c(C)c(-n3nccn3)sc21)OC1CCOCC1 [Example 55]

# Biological target: ACC2 (Homo sapiens (Human), UniProt O00763)
# Sequence (O00763 whole entry, species assumed): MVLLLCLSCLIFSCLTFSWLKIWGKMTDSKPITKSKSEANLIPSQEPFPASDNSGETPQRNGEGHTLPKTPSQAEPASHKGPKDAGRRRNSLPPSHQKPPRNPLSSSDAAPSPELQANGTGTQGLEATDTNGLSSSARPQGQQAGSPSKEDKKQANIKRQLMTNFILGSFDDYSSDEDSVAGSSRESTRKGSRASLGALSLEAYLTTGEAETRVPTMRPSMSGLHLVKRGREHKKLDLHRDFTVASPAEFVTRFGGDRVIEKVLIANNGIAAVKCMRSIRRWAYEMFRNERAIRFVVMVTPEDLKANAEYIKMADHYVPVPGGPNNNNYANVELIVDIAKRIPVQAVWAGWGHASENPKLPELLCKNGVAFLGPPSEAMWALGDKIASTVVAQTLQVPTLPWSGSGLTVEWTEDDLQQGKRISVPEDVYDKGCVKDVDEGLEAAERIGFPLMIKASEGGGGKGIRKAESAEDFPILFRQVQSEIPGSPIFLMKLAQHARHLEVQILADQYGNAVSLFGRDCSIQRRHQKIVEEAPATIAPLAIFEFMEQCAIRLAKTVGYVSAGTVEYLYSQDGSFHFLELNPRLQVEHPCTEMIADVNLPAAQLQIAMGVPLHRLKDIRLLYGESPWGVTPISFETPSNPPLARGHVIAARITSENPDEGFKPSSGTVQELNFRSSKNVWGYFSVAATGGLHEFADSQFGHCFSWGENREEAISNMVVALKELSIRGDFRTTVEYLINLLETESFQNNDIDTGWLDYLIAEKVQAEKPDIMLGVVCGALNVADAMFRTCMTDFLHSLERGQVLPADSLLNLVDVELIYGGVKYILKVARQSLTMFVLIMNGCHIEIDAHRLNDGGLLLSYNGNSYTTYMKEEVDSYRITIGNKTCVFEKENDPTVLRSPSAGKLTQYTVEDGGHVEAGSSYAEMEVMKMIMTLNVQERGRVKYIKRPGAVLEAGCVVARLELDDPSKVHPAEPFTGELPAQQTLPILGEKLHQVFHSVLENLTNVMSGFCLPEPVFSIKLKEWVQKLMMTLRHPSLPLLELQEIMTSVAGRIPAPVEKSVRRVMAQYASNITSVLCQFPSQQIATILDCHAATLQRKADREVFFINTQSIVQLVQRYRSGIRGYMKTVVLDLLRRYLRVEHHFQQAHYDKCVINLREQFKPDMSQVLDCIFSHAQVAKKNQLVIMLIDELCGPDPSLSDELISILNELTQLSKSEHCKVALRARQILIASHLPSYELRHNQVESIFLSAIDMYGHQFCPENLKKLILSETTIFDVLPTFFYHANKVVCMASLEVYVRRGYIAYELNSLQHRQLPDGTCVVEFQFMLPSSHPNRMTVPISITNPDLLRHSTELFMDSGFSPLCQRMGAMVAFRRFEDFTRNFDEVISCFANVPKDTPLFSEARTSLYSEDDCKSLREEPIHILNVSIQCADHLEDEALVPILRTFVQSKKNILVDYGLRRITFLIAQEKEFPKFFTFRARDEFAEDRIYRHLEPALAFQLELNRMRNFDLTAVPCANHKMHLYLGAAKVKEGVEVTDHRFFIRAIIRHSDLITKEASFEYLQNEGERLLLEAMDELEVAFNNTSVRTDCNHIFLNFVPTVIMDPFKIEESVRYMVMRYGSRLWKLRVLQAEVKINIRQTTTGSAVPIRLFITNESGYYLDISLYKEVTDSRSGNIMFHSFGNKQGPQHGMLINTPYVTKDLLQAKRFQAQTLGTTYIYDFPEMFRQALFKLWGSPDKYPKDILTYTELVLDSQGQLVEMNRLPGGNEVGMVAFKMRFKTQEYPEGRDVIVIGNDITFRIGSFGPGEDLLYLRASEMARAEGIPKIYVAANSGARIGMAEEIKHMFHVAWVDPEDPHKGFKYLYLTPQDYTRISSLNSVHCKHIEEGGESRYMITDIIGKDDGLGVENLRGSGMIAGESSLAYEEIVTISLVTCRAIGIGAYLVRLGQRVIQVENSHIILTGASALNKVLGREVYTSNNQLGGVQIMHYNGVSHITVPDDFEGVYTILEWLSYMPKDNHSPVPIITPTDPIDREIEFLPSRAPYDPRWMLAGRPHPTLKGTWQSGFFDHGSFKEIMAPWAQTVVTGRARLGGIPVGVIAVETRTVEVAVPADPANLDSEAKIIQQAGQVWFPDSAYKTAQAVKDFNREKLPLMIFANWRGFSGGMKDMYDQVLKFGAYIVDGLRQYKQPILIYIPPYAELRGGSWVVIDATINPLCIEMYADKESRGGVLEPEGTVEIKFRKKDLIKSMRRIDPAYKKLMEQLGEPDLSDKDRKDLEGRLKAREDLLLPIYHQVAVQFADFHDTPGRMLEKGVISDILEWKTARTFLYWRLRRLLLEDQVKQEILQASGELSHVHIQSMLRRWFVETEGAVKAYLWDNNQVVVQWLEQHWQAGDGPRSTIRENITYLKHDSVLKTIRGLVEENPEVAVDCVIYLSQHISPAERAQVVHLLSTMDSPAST
# Assay: In vitro ACC inhibition assay (ADP-Glo), ACC2
# Format: biochemical
# Conditions: 5 nM ACC2, 20 μM ATP, 20 μM acetyl-CoA; read-out: IC50 (μM) ACC2
# Description: as §1, §2, §3, §4
row,Structure (SMILES),IC50 [µM]
1,CNC(=O)C1(n2c(=O)c3c(C)c(-c4ncco4)sc3n(CC(OC3CCOCC3)c3ccccc3OC)c2=O)CC1 (stereo not drawn) [Example 47],0.01 to 0.1
2,CNC(=O)C1(n2c(=O)c3c(C)c(-c4ncco4)sc3n(CC(OC3CCOCC3)c3ccccc3OC)c2=O)CCC1 (stereo not drawn) [Example 53],< 0.01
3,COc1ccccc1C(Cn1c(=O)n(C2(C(N)=O)CCC2)c(=O)c2c(C)c(-c3ncco3)sc21)OC1CCOCC1 (stereo not drawn) [Example 54],0.01 to 0.1

# More lines, now with the values ahead:
row,IC50 [µM],Structure (SMILES)
1,0.01 to 0.1,COc1ccccc1C(Cn1c(=O)n(C2(C(N)=O)CCC2)c(=O)c2c(C)c(Br)sc21)OC1CCOCC1 (stereo not drawn) [Example 51]
2,0.01 to 0.1,CNC(=O)C1(n2c(=O)c3c(C)c(Br)sc3n(CC(OC3CCOCC3)c3ccccc3OC)c2=O)CCC1 (stereo not drawn) [Example 52]
3,< 0.01,COc1ccccc1[C@H](Cn1c(=O)n(C2(C(=O)O)CCCC2)c(=O)c2c(C)c(-n3nccn3)sc21)OC1CCOCC1 [Example 55]

# Same assay, conditions: ND630 versus RJ compounds; isoform not given; read-out: IC50 (μM) ND630/RJ-cmps(%)
row,Structure (SMILES),IC50 [µM]
1,CNC(=O)C1(n2c(=O)c3c(C)c(-c4ncco4)sc3n(CC(OC3CCOCC3)c3ccccc3OC)c2=O)CC1 (stereo not drawn) [Example 47],0.005 to 0.01
2,CNC(=O)C1(n2c(=O)c3c(C)c(-c4ncco4)sc3n(CC(OC3CCOCC3)c3ccccc3OC)c2=O)CCC1 (stereo not drawn) [Example 53],0.003 to 0.005
3,COc1ccccc1C(Cn1c(=O)n(C2(C(N)=O)CCC2)c(=O)c2c(C)c(-c3ncco3)sc21)OC1CCOCC1 (stereo not drawn) [Example 54],0.005 to 0.01

# More lines, now with the values ahead:
row,IC50 [µM],Structure (SMILES)
1,0.003 to 0.005,COc1ccccc1C(Cn1c(=O)n(C2(C(N)=O)CCC2)c(=O)c2c(C)c(Br)sc21)OC1CCOCC1 (stereo not drawn) [Example 51]
2,0.003 to 0.005,CNC(=O)C1(n2c(=O)c3c(C)c(Br)sc3n(CC(OC3CCOCC3)c3ccccc3OC)c2=O)CCC1 (stereo not drawn) [Example 52]
3,0.005 to 0.01,COc1ccccc1[C@H](Cn1c(=O)n(C2(C(=O)O)CCCC2)c(=O)c2c(C)c(-n3nccn3)sc21)OC1CCOCC1 [Example 55]

# System: HepG2
# Assay: EC50 in HepG2
# Format: cell-based
# Conditions: HepG2; read-out: EC50 (μM) HepG2
row,Structure (SMILES),EC50 [µM]
1,CNC(=O)C1(n2c(=O)c3c(C)c(-c4ncco4)sc3n(CC(OC3CCOCC3)c3ccccc3OC)c2=O)CC1 (stereo not drawn) [Example 47],0.01 to 0.1
2,CNC(=O)C1(n2c(=O)c3c(C)c(-c4ncco4)sc3n(CC(OC3CCOCC3)c3ccccc3OC)c2=O)CCC1 (stereo not drawn) [Example 53],0.01 to 0.1
3,COc1ccccc1C(Cn1c(=O)n(C2(C(N)=O)CCC2)c(=O)c2c(C)c(-c3ncco3)sc21)OC1CCOCC1 (stereo not drawn) [Example 54],< 0.01

# Results, then the compound that gave them:
row,EC50 [µM],Structure (SMILES)
1,0.01 to 0.1,COc1ccccc1C(Cn1c(=O)n(C2(C(N)=O)CCC2)c(=O)c2c(C)c(Br)sc21)OC1CCOCC1 (stereo not drawn) [Example 51]
2,0.01 to 0.1,CNC(=O)C1(n2c(=O)c3c(C)c(Br)sc3n(CC(OC3CCOCC3)c3ccccc3OC)c2=O)CCC1 (stereo not drawn) [Example 52]
3,< 0.01,COc1ccccc1[C@H](Cn1c(=O)n(C2(C(=O)O)CCCC2)c(=O)c2c(C)c(-n3nccn3)sc21)OC1CCOCC1 [Example 55]

# Same assay, conditions: ND630 versus RJ compounds; read-out: EC50 (μM) ND630/RJ-cmps(%)
row,Structure (SMILES),EC50 [µM]
1,CNC(=O)C1(n2c(=O)c3c(C)c(-c4ncco4)sc3n(CC(OC3CCOCC3)c3ccccc3OC)c2=O)CC1 (stereo not drawn) [Example 47],> 1
2,CNC(=O)C1(n2c(=O)c3c(C)c(-c4ncco4)sc3n(CC(OC3CCOCC3)c3ccccc3OC)c2=O)CCC1 (stereo not drawn) [Example 53],> 1
3,COc1ccccc1C(Cn1c(=O)n(C2(C(N)=O)CCC2)c(=O)c2c(C)c(-c3ncco3)sc21)OC1CCOCC1 (stereo not drawn) [Example 54],> 1

# Now from value to compound:
row,EC50 [µM],Structure (SMILES)
1,> 1,COc1ccccc1C(Cn1c(=O)n(C2(C(N)=O)CCC2)c(=O)c2c(C)c(Br)sc21)OC1CCOCC1 (stereo not drawn) [Example 51]
2,> 1,CNC(=O)C1(n2c(=O)c3c(C)c(Br)sc3n(CC(OC3CCOCC3)c3ccccc3OC)c2=O)CCC1 (stereo not drawn) [Example 52]
3,> 1,COc1ccccc1[C@H](Cn1c(=O)n(C2(C(=O)O)CCCC2)c(=O)c2c(C)c(-n3nccn3)sc21)OC1CCOCC1 [Example 55]
